“Also recorded” adds a separate entry of the source.
What was measured:
rats [1] = assay: Gradual hypotension during anesthesia in rats; assay type: in vivo, male SD rats; conditions: rat, enflurane
Description: Male SD rats (Charles River Japan Inc.) were anesthetized with intravenous thiopental 50 mg/kg as a bolus, followed by 1% enflurane in air.
A femoral artery was catheterized to monitor the blood pressure and heart rate, while a femoral vein was catheterized for the administration of each of the test drugs.
(§1) The control values were obtained before the administration of each test drug. Each test drug was then administered using a syringe in a dose-dependent manner for 15 minutes. The percentage (%) of the decrease of blood pressure was determined when stabilized. Changes in heart rate (H.R.) at the administration of each test drug were measured. Furthermore,the recovery of mean blood pressure after intravenous infusion of each test drug was also determined from the decrease in heart rate and the blood pressure at a maximum dose of each test drug.

rats [2] = assay: Recovery of blood pressure after gradual hypotension in rats; assay type: in vivo, male SD rats; conditions: rat
Description: FIG. 1 is a graph showing the recovery of the blood pressure of rats anesthetized with enflurane with time, when each of Ap4A ( ), PG E1 ( ) and nitroglycerin ( ) was used as a test drug to attain gradual hypotension, with the blood pressure before the administration of each test drug being set 100% for reference.
The recovery of blood pressure after gradual hypotension by use of each of Ap4A, PG E1 and nitroglycerin was also tested.
as §1
In a test similar to the above, each of Ap4A, PG E1, and nitroglycerin was administered to rats, so that about 65% fall in blood pressure, about 55% fall in blood pressure, and about 35% fall in blood pressure were stepwise attained. With respect to each agent, the recovery of blood pressure was tested.

[3] = words; cited from earlier work
dogs = assay: Gradual hypotension during anesthesia in dogs (hemodynamics, blood gas); assay type: in vivo, mongrel dogs; conditions: dog
Description: Dogs were anesthetized with enflurane. […] The mean blood pressure (B.P.), heart rate (H.R.), cardiac output (C.O.), arterial oxygen tension (PaO2), mixed venos oxygen tension (PvO2), arterial carbonate tension (PaCO2), mixed venous carbonate tension (PvCO2), arterial pH (pH-a), mixed venous pH (pH-v), and base excess thereof were measured.
Mongrel dogs weighing 9 to 17 kg were anesthetized with intravenous thiopental 20 mg/kg by bolus injection, followed by 1% enflurane in 40% O2 /N2 after endotracheal intubation. […] Bilateral femoral arteries were catheterized, one for the determination of blood pressure and the other for blood sampling.
Access to the bilateral femoral veins was obtained for the administration of Ap4A, PG E1 or nitroglycerin and for the insertion of a ballon-tipped thermodilution catheter. The electrocardiogram was continuously monitored. The control values were obtained before the administration of each of the above-mentioned three agents. Each agent was administered using a syringe pump at titrated doses to produce gradual 20%, 40%, 50%, 60%, and 80% decreases in the mean arterial pressure (MAP) from the control value.
After the target blood pressure and stable hemodynamic conditions were reached, the following parameters were measured: heart rate (HR), mean pulmonary artery pressure (PAM), pulmonary capillary wedge pressure (PCWP), and central venous pressure (CVP). Cardiac output (CO) was determined by the thermodilution method. Gas analyses of arterial and mixed venous bloods were performed using a blood gas analyzer.

[4] = enflurane, at -20% blood pressure

SMILES: O=[N+]([O-])OCC(CO[N+](=O)[O-])O[N+](=O)[O-] [nitroglycerin, reference compound]
- Blood Pressure (Δ%) (rats [1]; infusion 0.03 μg/kg/min): 0%
- Heart Rate (Δ%) (rats [1]; infusion 0.03 μg/kg/min): 0%
- Blood Pressure (Δ%) (rats [1]; infusion 0.1 μg/kg/min): 0%
- Heart Rate (Δ%) (rats [1]; infusion 0.1 μg/kg/min): 0%
- Blood Pressure (Δ%) (rats [1]; infusion 0.3 μg/kg/min): -1.0 ± 1.0%
- Heart Rate (Δ%) (rats [1]; infusion 0.3 μg/kg/min): -0.3 ± 0.5%
- Blood Pressure (Δ%) (rats [1]; infusion 1 μg/kg/min): -7.5 ± 3.2%
- Heart Rate (Δ%) (rats [1]; infusion 1 μg/kg/min): -1.5 ± 1.1%
- Blood Pressure (Δ%) (rats [1]; infusion 3 μg/kg/min): -16.4 ± 4.4%
- Heart Rate (Δ%) (rats [1]; infusion 3 μg/kg/min): -6.5 ± 2.3%
- Blood Pressure (Δ%) (rats [1]; infusion 10 μg/kg/min): -24.7 ± 4.4%
- Heart Rate (Δ%) (rats [1]; infusion 10 μg/kg/min): -13.9 ± 4.0%
- Blood Pressure (Δ%) (rats [1]; infusion 30 μg/kg/min): -27.6 ± 5.2%
- Heart Rate (Δ%) (rats [1]; infusion 30 μg/kg/min): -13.8 ± 4.7%
- recovered blood pressure (before administration = 100%), plateau (rats [2]; plateau): about 85%
- fall in blood pressure attained before recovery (rats [2]; stepwise): about 35%
- rapidness of the recovery of blood pressure (rats [2]; order in words): Ap4A>PG E1 >nitroglycerin
- shortcomings / adverse effects [3]: congestion by the expansion of vanation, and tachycardia are caused; also recorded: sthenia of brain pressure is caused; also recorded: the arterial oxygen tension (PaO2) is decreased during hypotensive anesthesia
- fall in blood pressure attainable (dogs; enflurane): ~30%
- Arterial Carbonate Tension PaCO2 (dogs; [4]): 36.4 ± 1.6 mmHg
- Arterial Oxygen Tension PaO2 (dogs; [4]): 229.9 ± 2.7 mmHg
- Arterial pH (pH-a) (dogs; [4]): 7.315 ± 0.020
- Body Temperature BT (dogs; [4]): 38.6 ± 0.3 °C
- Cardiac Output C.O. (dogs; [4]): 1.58 ± 0.21 L/min
- Central Venous Pressure CVP (dogs; [4]): 2.32 ± 0.75 mmHg
- Dose (dogs; [4]): 42.2 ± 2.0 µg/kg/min
- Heart Rate H.R. (dogs; [4]): 191.7 ± 7.5 beats/min
- Hematocrit Value Hct (dogs; [4]): 42.2 ± 2.0%
- Mean Blood Pressure B.P. (mean) (dogs; [4]): 101.0 ± 1.5
- Mean Blood Pressure B.P. (Δ%) (dogs; [4]): -18.7 ± 0.9%
- Mixed Venous Carbonate Tension PvCO2 (dogs; [4]): 39.6 ± 1.6 mmHg
- Mixed Venous Oxygen Tension PvO2 (dogs; [4]): 46.5 ± 2.7 mmHg
- Mixed Venous pH (pH-v) (dogs; [4]): 7.300 ± 0.014
- Pulmonary Artery Pressure PAM (dogs; [4]): 12.8 ± 1.0 mmHg
- Pulmonary Capillary Wedge Pressure PCWP (dogs; [4]): 8.0 ± 0.6 mmHg
- effect on arterial pH / venous pH (dogs; result in words): significantly decrease arterial pH or have a tendency to decrease arterial pH
- effect on heart rate (dogs; result in words): tendency to increase the heart rate when a 20% fall in blood pressure is attained
- effect on oxygen tension (dogs; result in words): decreases PaO2

Reference: patent US5380715A, “Ap4 A as a hypotensive agent” (Fujirebio Inc., priority 1992, dated 1995)
